How the values were obtained:
Beta-Amyloid (1–42) = target: T1, Beta-Amyloid (1–42) (Homo sapiens, UniProt P05067); experiment: biochemical; settings: Aβ aggregation, Thioflavin T; mean ± standard deviation; read-out: IC50 ± SD Aβ42 inhibition
T1 construct: SensoLyte® Thioflavin T Beta-Amyloid (1–42) Aggregation Kit; purchased ANASPEC Inc., Fremont, CA, USA
Description: The β-amyloid aggregation inhibition was measured using the fluorometric SensoLyte® Thioflavin T Beta-Amyloid (1–42) Aggregation Kit (ANASPEC Inc., Fremont, CA., USA) according to the manufacturer's instructions. […]
2. In Vitro Amyloid-β Aggregation Assay
Amyloid-β (1–42) aggregation was measured using the SensoLyte ® Thioflavin T β-Amyloid aggregation kit (AnaSpec, Fremont, CA, USA) 2, according to the manufacturer’s instructions. The assay is based on the property of the Thioflavin T dye, the fluorescence of which increases when it is bound to aggregates of amyloid-β (1 –42) peptides. Briefly, Thioflavin T was dissolved in assay buffer [10 mM Phosphate/150 mM NaCl (pH=8.0)] and used at a concentration of 100 μM. Samples were dissolved in assay buffer, 5 μL of the sample and 85 μL of amyloid-β (1–42) were mixed, followed by the addition of 10 μL of 2mM Thioflavin T.
Thioflavin T fluorescence was measured at intervals of 10 min for 2 h, with an excitation /emission =440 […]
All fluorescence readings are expressed in relative fluorescence units (RFU).
Morin was used as a positive control. Experiments were performed in triplicate and averaged, and the percentage of inhibition of amyloid-β aggregation was calculated according to the following equation:
% Relative Inhibition = (RFU of PC - RFU of S)/ ([…]) x 100
Where: PC, is the Peptide Positive Control or Solvent Control; S, is Sample Screen.
IC50 was generated by plotting the values of percent inhibition against their corresponding logarithmic concentration. Best fitted line was determined and IC50 was calculated from its equation.

hAChE = target: T2, hAChE (Homo sapiens, UniProt P22303); experiment: biochemical; settings: mean ± standard deviation; read-out: IC50 ± SD AChE
T2 construct: purchased BioVision ('Bio Vision, Egypt' [sic]; address 155 S. Milpitas Blvd., Milpitas, CA) K197-100
T2 sequence (P22303 32-614): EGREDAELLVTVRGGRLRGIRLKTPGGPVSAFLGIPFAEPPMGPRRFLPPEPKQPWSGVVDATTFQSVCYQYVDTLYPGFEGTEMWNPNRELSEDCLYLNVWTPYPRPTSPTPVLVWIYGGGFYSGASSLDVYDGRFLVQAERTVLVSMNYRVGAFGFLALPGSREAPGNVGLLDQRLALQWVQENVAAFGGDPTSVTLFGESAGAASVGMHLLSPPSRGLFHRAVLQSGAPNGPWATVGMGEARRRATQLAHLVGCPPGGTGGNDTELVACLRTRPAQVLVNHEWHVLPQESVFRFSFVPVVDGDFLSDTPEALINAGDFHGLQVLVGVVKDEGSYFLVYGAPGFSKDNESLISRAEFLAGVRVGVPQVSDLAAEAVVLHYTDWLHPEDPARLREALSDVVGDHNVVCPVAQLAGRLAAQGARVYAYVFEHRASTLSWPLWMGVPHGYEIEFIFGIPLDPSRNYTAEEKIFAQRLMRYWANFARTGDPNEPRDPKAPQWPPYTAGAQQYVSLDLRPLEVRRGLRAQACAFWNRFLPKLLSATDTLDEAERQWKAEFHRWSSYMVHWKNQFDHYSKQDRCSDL
Description: The synthesized compounds were assayed to determine their ability to inhibit hAChE using (K197-100, Bio Vision, Egypt)1. A 96-well plate was used by applying the spectroscopic method of Ellman1, and […]
The compounds were dissolved in a small amount of DMSO to obtain a concentration range of 0.01-10 μM. Each well contained 160 μl of dithiobis-(2-nitrobenzoic acid) (Ellman's reagent, DTNB), 10 μl of the tested compound and 50 μl hAChE solution, while Blank wells contained 160 μl DTNB, 10 μl DMSO, and 50 μl buffer (1 M, pH=8.0, Tris-HCl) . 100% ChE activity (100% activity) contained 160 μl DTNB, 2 μl DMSO, 8 μl buffer and 50 μl hAChE. After 5 min of incubation at 25 […]
Two time points (t1 and t2) in the linear range of the plot were chosen and the corresponding values for the absorbance (OD1 and OD2) were obtained.
The percentage of relative inhibition was calculated from the following equation:
% Relative Inhibition = Slope of[ EC]−Slope of [S] /Slope of[EC ] X100
% Relative Activity = Slope of [S] /Slope of [EC] X100
Where: S, is Sample Screen; EC, is Enzyme Control. […]

T1 sequence (P05067 672-713): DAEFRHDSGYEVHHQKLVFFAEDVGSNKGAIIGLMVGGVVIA

SMILES | IC50 (Beta-Amyloid (1–42)) | IC50 (hAChE)
COc1cc(Cn2cc(COc3ccc(C=O)cc3OC)nn2)ccc1O [Compound 1, 4-((1-(3-methoxy-4-hydroxybenzyl)-1H-1,2,3-triazol-4-yl)methoxy)-3-methoxybenzaldehyde] | 4850 ± 240 nM | 14200 ± 720 nM
C=CCc1ccc(OCc2cn(Cc3ccc(O)c(OC)c3)nn2)c(OC)c1 [Compound 2, 4-((4-((4-allyl-2-methoxyphenoxy)methyl)-1H-1,2,3-triazol-1-yl)methyl)-2-methoxyphenol] | 22700 ± 1140 nM | 26800 ± 1350 nM
COc1cc(Cn2cc(COc3ccc(C=CC=O)cc3OC)nn2)ccc1O [Compound 3, 4-((1-(3-methoxy-4-hydroxybenzyl)-1H-1,2,3-triazol-4-yl)methoxy)-3-methoxyphenyl acrylaldehyde] | 2860 ± 140 nM | 5530 ± 280 nM
CCOC(=O)c1ccc(OCc2cn(Cc3ccc(O)c(OC)c3)nn2)c(OC)c1 [Compound 4, 4-((1-(3-methoxy-4-hydroxybenzyl)-1H-1,2,3-triazol-4-yl)methoxy)-3-methoxy-ethyl benzoate] | 1590 ± 80 nM | 2110 ± 120 nM
COc1cc(Cn2cc(COc3ccc(C(=O)O)cc3OC)nn2)ccc1O [Compound 5, 4-((1-(3-methoxy-4-hydroxybenzyl)-1H-1,2,3-triazol-4-yl)methoxy)-3-methoxybenzoic acid] | 1480 ± 70 nM | 2110 nM
CCOC(=O)C=Cc1ccc(OCc2cn(Cc3ccc(O)c(OC)c3)nn2)c(OC)c1 [Compound 6, ethyl 4-((1-(3-methoxy-4-hydroxybenzyl)-1H-1,2,3-triazol-4-yl)methoxy)-3-methoxyphenyl acrylate] | 3060 ± 150 nM | 2520 ± 130 nM
COc1cc(Cn2cc(COc3ccc(C=CC(=O)O)cc3OC)nn2)ccc1O [Compound 7, 4-((1-(3-methoxy-4-hydroxybenzyl)-1H-1,2,3-triazol-4-yl)methoxy)-3-methoxyphenyl acrylic acid] | 4480 ± 220 nM | 10600 ± 530 nM
COc1cc(Cn2cc(COC(=O)c3ccc(O)c(OC)c3)nn2)ccc1O [Compound 8, (1-(4-hydroxy-3-methoxybenzyl)-1H-1,2,3-triazol-4-yl)methyl 4-hydroxy-3-methoxy benzoate] | 950 ± 50 nM | 1200 ± 60 nM
COc1cc(/C=C/C(=O)OCc2cn(Cc3ccc(O)c(OC)c3)nn2)ccc1O [Compound 9, (E)-(1-(4-hydroxy-3-methoxybenzyl)-1H-1,2,3-triazol-4-yl)methyl 3-(4-hydroxy-3 methoxyphenyl)acrylate] | 310 ± 20 nM | 470 ± 20 nM

Reference: PMC9850456, “Click-designed vanilloid-triazole conjugates as dual inhibitors of AChE and Aβ aggregation” (RSC Advances, 2023)
